The target of data set [1] is T1, Oct2 (slc22a2) (Danio rerio, UniProt Q7T2C0).
T1 construct: complete Danio rerio slc22a2 cDNA clone (zgc:64076; IRBOp991A024D; oct2)
T1 sequence (Q7T2C0 1-562): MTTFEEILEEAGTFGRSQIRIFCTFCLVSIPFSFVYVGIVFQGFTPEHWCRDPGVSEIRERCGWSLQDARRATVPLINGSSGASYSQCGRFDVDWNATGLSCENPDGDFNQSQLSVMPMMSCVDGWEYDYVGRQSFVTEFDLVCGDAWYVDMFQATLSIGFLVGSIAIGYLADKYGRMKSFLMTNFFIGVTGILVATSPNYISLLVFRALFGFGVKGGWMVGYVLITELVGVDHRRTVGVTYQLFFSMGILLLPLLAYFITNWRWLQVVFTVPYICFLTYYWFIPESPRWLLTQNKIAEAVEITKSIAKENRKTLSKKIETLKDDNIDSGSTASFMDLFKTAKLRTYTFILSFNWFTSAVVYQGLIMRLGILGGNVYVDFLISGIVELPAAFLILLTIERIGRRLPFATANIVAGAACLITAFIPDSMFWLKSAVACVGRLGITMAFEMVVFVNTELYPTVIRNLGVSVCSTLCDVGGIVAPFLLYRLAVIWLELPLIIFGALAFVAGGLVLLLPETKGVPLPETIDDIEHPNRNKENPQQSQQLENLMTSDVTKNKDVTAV
Put plainly: radiolabelled uptake in Xenopus oocytes expressing zebrafish oct2 versus sham. In kind it is cell-based.

For data set [2], the target named is T1, Oct2 (slc22a2). Put plainly: inhibition of […] TEA uptake at […] in Xenopus oocytes expressing zebrafish oct2. The data set is classed as cell-based.
Substrate in data set [3]: CNC(=C[N+](=O)[O-])NCCSCc1ccc(CN(C)C)o1
Put plainly: cells, lysate or membranes.

Substrate in data set [4]: CC(C)NCC(O)COc1cccc2ccccc12
Put plainly: cells, lysate or membranes.

This is an account of results in publication PMC9827845, “Active Pharmaceutical Ingredient Uptake by Zebrafish (Danio rerio) Oct2 (slc22a2) Transporter Expressed in Xenopus laevis Oocytes” (Environmental Toxicology and Chemistry, 2022).

For the molecule `CC[N+](CC)(CC)CC` [TEA, tetraethylammonium], the “radiolabelled uptake in Xenopus oocytes expressing zebrafish oct2 versus sham” value at Oct2 (slc22a2) [1] was “zebrafish oct2 when expressed in Xenopus oocytes can facilitate the transport of ranitidine, propranolol, and TEA”. Consider `NC12CC3CC(CC(C3)C1)C2` [amantadine], for which the “inhibition of 200 μM TEA uptake at 2 mM in Xenopus oocytes expressing zebrafish” value on Oct2 (slc22a2) [2] is “Uptake of tetraethylammonium (TEA) was inhibited by propranolol, amantadine, and cimetidine”.

B1: Oct2 (slc22a2) (Danio rerio) (protein)
chain: MTTFEEILEEAGTFGRSQIRIFCTFCLVSIPFSFVYVGIVFQGFTPEHWCRDPGVSEIRERCGWSLQDARRATVPLINGSSGASYSQCGRFDVDWNATGLSCENPDGDFNQSQLSVMPMMSCVDGWEYDYVGRQSFVTEFDLVCGDAWYVDMFQATLSIGFLVGSIAIGYLADKYGRMKSFLMTNFFIGVTGILVATSPNYISLLVFRALFGFGVKGGWMVGYVLITELVGVDHRRTVGVTYQLFFSMGILLLPLLAYFITNWRWLQVVFTVPYICFLTYYWFIPESPRWLLTQNKIAEAVEITKSIAKENRKTLSKKIETLKDDNIDSGSTASFMDLFKTAKLRTYTFILSFNWFTSAVVYQGLIMRLGILGGNVYVDFLISGIVELPAAFLILLTIERIGRRLPFATANIVAGAACLITAFIPDSMFWLKSAVACVGRLGITMAFEMVVFVNTELYPTVIRNLGVSVCSTLCDVGGIVAPFLLYRLAVIWLELPLIIFGALAFVAGGLVLLLPETKGVPLPETIDDIEHPNRNKENPQQSQQLENLMTSDVTKNKDVTAV
For the molecule B1, the Km came out at 246.1 µM in data set [3] and 408.9 µM in data set [4].
